Source: ChEMBL document CHEMBL1133380, “3-Imidazolylmethylaminophenylsulfonyltetrahydroquinolines, a novel series of farnesyltransferase inhibitors” (Bioorg Med Chem Lett, 2000)

biological target: Protein farnesyltransferase (Homo sapiens, UniProt P49354+P49356); test: Inhibition of Farnesyltransferase; assay type: protein-complex assay

Compound | IC50 [nM]
O=S(=O)(c1cccc(N(Cc2cnc[nH]2)Cc2cnc[nH]2)c1)N1CCCc2ccccc21 | 130
CCCCOc1ccc(S(=O)(=O)N2CCCc3ccccc32)cc1N(Cc1cnc[nH]1)Cc1cnc[nH]1 | 480
O=S(=O)(c1cccc(NCc2cnc[nH]2)c1)N1CCCc2ccccc21 | 15000
N#Cc1cccc(CN(Cc2c[nH]cn2)c2cccc(S(=O)(=O)N3CCCc4ccccc43)c2)c1 | 570

The next lines start with the values.

IC50 [nM] | Compound
0.6 | CSCC[C@H](NC(=O)[C@@H]1Cc2ccccc2CN1C(=O)[C@@H](NC[C@@H](N)CS)C(C)C)C(=O)O
0.8 | CSCC[C@H](NC(=O)[C@@H]1Cc2ccccc2CN1C(=O)[C@@H](NCCc1cnc[nH]1)C(C)C)C(=O)O
